Measured values taken from patent publication US20110039819A1, “SUBSTITUTED PHENOXYBENZAMIDES” (priority 2008, published 2011).
Read-outs that look alike come from different tables or passages of the source.

Biological target: T1, MEK1 (Homo sapiens, UniProt Q02750)
T1 construct: purchased Millipore 14-420 (GST-MEK1); 14-703 (Cot1); host or cells: Cot1: insect cells (SF21)
Assay: MEK1 activation kinase assay (Assay 2, HTRF; Cot1 phosphorylates GST-MEK1)
Assay type: biochemical
Procedure: MEK1 Activation Kinase Assay
The kinase Cot1 activates MEK1 by phosphorylating its activation loop. The inhibitory activity of compounds of the present invention on this activation of MEK1 was quantified employing the HTRF assay described in the following paragraphs.
As substrate for the kinase reaction the unactive C-terminally His6-tagged GST-MEK1 fusion protein (Millipore cat. no 14-420) was used.
Then the kinase reaction was started by the addition of 2 μl of a solution of Cot1 in assay buffer and the resulting mixture was incubated for a reaction time of 20 min at 22° C. The concentration of Cot1 in the assay was adjusted depending of the activity of the enzyme lot and was chosen appropriate to have the assay in the linear range, typical enzyme concentrations were in the range of about 2 ng/μl (final conc. in the 5 μl assay volume).
The resulting mixture was incubated 2 h at 22° C. to allow the binding of the phosphorylated GST-MEK1 to the anti-GST-XL665 and the Eu-cryptate labelled anti-phospho-MEK 1/2 antibody. Subsequently the amount of Ser217/Ser221-phosphorylated substrate was evaluated by measurement of the resonance energy transfer from the Eu-Cryptate-labelled anti-phospho-MEK antibody to the anti-GST-XL665.

[1] = mean values from 2 or more measurements, read-out: Assay 2 IC50 values (nanomolar) (MEK1 activation kinase assay) (values are mean values from 2 or more measurements)
[2] = representative example compounds, read-out: IC50 in MEK1 activation kinase assay

T1 sequence (Q02750 whole entry): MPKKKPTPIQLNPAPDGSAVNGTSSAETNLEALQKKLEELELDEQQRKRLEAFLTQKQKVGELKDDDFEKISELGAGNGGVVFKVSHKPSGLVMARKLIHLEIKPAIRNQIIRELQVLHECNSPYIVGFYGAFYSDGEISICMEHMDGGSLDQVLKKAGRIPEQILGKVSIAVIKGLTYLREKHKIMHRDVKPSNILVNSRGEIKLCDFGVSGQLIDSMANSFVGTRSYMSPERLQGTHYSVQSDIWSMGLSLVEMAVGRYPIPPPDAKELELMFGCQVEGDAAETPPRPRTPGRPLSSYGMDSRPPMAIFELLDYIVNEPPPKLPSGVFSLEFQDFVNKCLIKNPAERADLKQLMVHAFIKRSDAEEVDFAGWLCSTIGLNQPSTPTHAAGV

SMILES	IC50 [1] [nM]	IC50 (IC50 in MEK1 activation kinase assay, representative example compounds) [nM]	IC50 [2] [nM]
CCN(CC)S(=O)(=O)Nc1cccc(Oc2cc(F)cc(Nc3ccc(I)cc3F)c2C(N)=O)c1 [Example 5.38, 2-(3-diethylsulfamoyl-amino-phenoxy)-4-fluoro-6-(2-fluoro-4-iodo-phenylamino)-benzamide]	55.3		
CC(=O)N1CCC[C@@H]1COc1cc(F)cc(Nc2ccc(I)cc2F)c1C(N)=O [Example 5.39, 2-((R)-1-Acetyl-pyrrolidin-2-ylmethoxy)-4-fluoro-6-(2-fluoro-4-iodo-phenylamino)-benzamide]	438		
NC(=O)c1c(Nc2ccc(I)cc2F)cc(F)cc1Oc1cccc(NS(=O)(=O)c2c[nH]cn2)c1 [Example 5.49, 4-Fluoro-2-(2-fluoro-4-iodo-phenylamino)-6-[3-(1H-imidazole-4-sulfonylamino)-phenoxy]-benzamide]	15.7		< 1000
CC(=O)NCc1cccc(Oc2cc(F)cc(Nc3ccc(I)cc3F)c2C(N)=O)c1 [Example 5.69, 2-[3-(Acetylamino-methyl)-phenoxy]-4-fluoro-6-(2-fluoro-4-iodo-phenylamino)-benzamide]	18.3		
NC(=O)c1c(Nc2ccc(I)cc2F)cc(F)cc1Oc1cccc(NC(=O)c2ccsc2)c1 [Example 5.75, Thiophene-3-carboxylic acid {3-[2-carbamoyl-5-fluoro-3-(2-fluoro-4-iodo-phenylamino)-phenoxy]-phenyl}-amide]	103		
NC(=O)c1c(Nc2ccc(I)cc2F)cc(F)cc1Oc1cccc(NC(=O)c2ccoc2)c1 [Example 5.77, Furan-3-carboxylic acid {3-[2-carbamoyl-5-fluoro-3-(2-fluoro-4-iodo-phenylamino)-phenoxy]-phenyl}-amide]	127		
NC(=O)c1c(Nc2ccc(I)cc2F)cc(F)cc1Oc1cccc(NC(=O)c2cn[nH]c2)c1 [Example 5.79, 1H-Pyrazole-4-carboxylic acid {3-[2-carbamoyl-5-fluoro-3-(2-fluoro-4-iodo-phenylamino)-phenoxy]-phenyl}-amide]	77.8		
NC(=O)c1c(Nc2ccc(I)cc2F)cc(F)cc1Oc1cccc(NC(=O)C2CCC2)c1 [Example 5.80, 2-[3-(Cyclo-butanecarbonyl-amino)-phenoxy]-4-fluoro-6-(2-fluoro-4-iodo-phenylamino)-benzamide]	137		
NC(=O)c1c(Nc2ccc(I)cc2F)cc(F)cc1Oc1cccc(NC(=O)c2cc[nH]n2)c1 [Example 5.81, 1H-Pyrazole-3-carboxylic acid {3-[2-carbamoyl-5-fluoro-3-(2-fluoro-4-iodo-phenylamino)-phenoxy]-phenyl}-amide]	96.4		
Cn1cncc1C(=O)Nc1cccc(Oc2cc(F)cc(Nc3ccc(I)cc3F)c2C(N)=O)c1 [Example 5.82, 3-Methyl-3H-imidazole-4-carboxylic acid {3-[2-carbamoyl-5-fluoro-3-(2-fluoro-4-iodo-phenylamino)-phenoxy]-phenyl}-amide]	49.9		
Cc1nocc1C(=O)Nc1cccc(Oc2cc(F)cc(Nc3ccc(I)cc3F)c2C(N)=O)c1 [Example 5.83, 3-Methyl-isoxazole-4-carboxylic acid {3-[2-carbamoyl-5-fluoro-3-(2-fluoro-4-iodo-phenylamino)-phenoxy]-phenyl}-amide]	143		
NC(=O)c1c(Nc2ccc(I)cc2F)cc(F)cc1Oc1cccc(NC(=O)c2ccon2)c1 [Example 5.84, Isoxazole-3-carboxylic acid {3-[2-carbamoyl-5-fluoro-3-(2-fluoro-4-iodo-phenylamino)-phenoxy]-phenyl}-amide]	75.4		
NC(=O)c1c(Nc2ccc(I)cc2F)cc(F)cc1Oc1cccc(NS(=O)(=O)NCC(F)(F)F)c1 [Example 5.94, 4-fluoro-2-[(2-fluoro-4-iodophenyl)amino]-6-(3-{[(2,2,2-trifluoroethyl)-sulfamoyl]amino}phenoxy)benzamide]	55.5		
CC(O)(CO)CCOc1cc(F)cc(Nc2ccc(I)cc2F)c1C(N)=O (stereo not shown) [Example 6.2, 2-(3,4-Dihydroxy-3-methyl-butoxy)-4-fluoro-6-(2-fluoro-4-iodo-phenylamino)-benzamide]	69.3		
C#Cc1ccc(Nc2cc(F)cc(Oc3cccc(NS(=O)(=O)N(C)C)c3)c2C(N)=O)c(F)c1 [Example 7.2, 2-[3-[[(dimethylamino)sulfonyl]amino]phenoxy]-4-fluoro-6-[(4-ethynyl-2-fluorophenyl)amino]-benzamide]	13.5		

The remaining compounds from weak to strong by IC50 [1], led by results:

IC50 [1] [nM]	IC50 (IC50 in MEK1 activation kinase assay, representative example compounds) [nM]	IC50 [2] [nM]	SMILES
86.2			NC(=O)c1c(Nc2ccc(I)cc2F)cc(F)cc1Oc1cccc(NC(=O)c2ccno2)c1 [Example 5.78, Isoxazole-5-carboxylic acid {3-[2-carbamoyl-5-fluoro-3-(2-fluoro-4-iodo-phenylamino)-phenoxy]-phenyl}-amide]
86			NC(=O)c1c(Nc2ccc(I)cc2F)cc(F)cc1Oc1cncc(NS(=O)(=O)c2c[nH]cn2)c1 [Example 5.93, 4-Fluoro-2-(2-fluoro-4-iodo-phenylamino)-6-[5-(1H-imidazole-4-sulfonylamino)-pyridin-3-yloxy]-benzamide]
70.3			NC(=O)c1c(Nc2ccc(I)cc2F)cc(F)cc1Oc1cccc(NC(=O)c2csnn2)c1 [Example 5.76, [1,2,3]Thiadiazole-4-carboxylic acid {3-[2-carbamoyl-5-fluoro-3-(2-fluoro-4-iodo-phenylamino)-phenoxy]-phenyl}-amide]
63.4			CN(C)S(=O)(=O)NCc1cccc(Oc2cc(F)cc(Nc3ccc(I)cc3F)c2C(N)=O)c1 [Example 5.67, 6-[3-(dimethyl-aminosulfonylamino-methyl)-phenoxy]-4-fluoro-2-(2-fluoro-4-iodo-phenylamino)-6-benzamide]
43.2			CS(=O)(=O)NCc1cccc(Oc2cc(F)cc(Nc3ccc(I)cc3F)c2C(N)=O)c1 [Example 5.68, 4-Fluoro-2-(2-fluoro-4-iodo-phenylamino)-6-[3-(methane-sulfonylamino-methyl)-phenoxy]-benzamide]
25.1			COCCS(=O)(=O)Nc1cccc(Oc2cc(F)cc(Nc3ccc(I)cc3F)c2C(N)=O)c1 [Example 5.95, 4-fluoro-2-[(2-fluoro-4-iodophenyl)amino]-6-(3-{[(2-methoxyethyl)sulfonyl]amino}phenoxy)benzamide]
22.2	< 1000		CNS(=O)(=O)Nc1cccc(Oc2cc(F)cc(Nc3ccc(I)cc3F)c2C(N)=O)c1 [Example 5.41, 2-[3-[[(methylamino)sulfonyl]amino]phenoxy]-4-fluoro-6-[(2-fluoro-4-iodophenyl)amino]-benzamide]
20.4			NC(=O)c1c(Nc2ccc(I)cc2F)cc(F)cc1Oc1cccc(NS(=O)(=O)C2CCCC2)c1 [Example 5.37, 2-(3- Cyclopentanesulfonylamino-phenoxy)-4-fluoro-6-(2-fluoro-4-iodo-phenylamino)-benzamide]
19.7			CC(C)(O)C(O)CCOc1cc(F)cc(Nc2ccc(I)cc2F)c1C(N)=O (stereo not shown) [Example 6.1, 2-(3,4-Dihydroxy-4-methyl-pentyloxy)-4-fluoro-6-(2-fluoro-4-iodo-phenylamino)-benzamide]
16.9		< 1000	NC(=O)c1c(Nc2ccc(I)cc2F)cc(F)cc1Oc1cccc(NS(=O)(=O)C2CCC2)c1 [Example 5.48, 2-(3-Cyclobutanesulfonyl-amino-phenoxy)-4-fluoro-6-(2-fluoro-4-iodo-phenylamino)-benzamide]
